Patent US10487089B2, “Imaging agents and methods of identifying same” (The Trustees of the University of Pennsylvania, priority 2014, dated 2019)
“Also recorded” adds a separate entry of the source. Where two headings read alike, the source gives them in different places. One block for each compound: values may come before it.

What was measured:
[1] = Variable temperature 1H-NMR of E/Z interconversion; assay type: physicochemical; details: DMF-d7, coalescence at 45° C.
From the text: A rapid and efficient synthesis of the desired photoactivatable probe starting with commercially available 2-cyanopyridine (FIG. 52). 2-cyanopyridine was elaborated to thioketone A using methods similar to those previously reported (Rarig et al., 2013, J. Am. Chem. Soc. 135: 9213-9219, which is incorporated by reference in its entirety for all purposes). Homocoupling of A, using copper powder in toluene under refluxing conditions, yielded 1,1′-diazaxanthilidene 10 as an interconverting mixture of E and Z isomers in 84% yield (FIG. 43). Methylation of 10 with dimethyl sulfate afforded the desired monomethylated product 11-E/11-Z in 96% yield. The overall yield of the probe from commercial starting materials after 6 steps was 24% (FIGS. 43 and 52). Single crystals of 10-E and 11-Z were obtained by slow evaporation from chloroform:methanol (1:1) and water, respectively. […] Variable temperature ^1H-NMR (J. Sandström, 1982, Dynamic NMR spectroscopy, Academic Press, London, New York) of 10-E/10-Z in deuterated N,N-dimethylformamide confirmed the dynamic interconversion of the E and Z isomers at room temperature.

[2] = Solubility (DMSO, water)
From the text: Water solubility would then be evaluated first by simply doing an aqueous extraction.

[3] = test system: HeLa cells; test: Toxicity to HeLa cells on a 24 h timescale (live-cell imaging)
[4] = test system: mitochondria of HeLa cells; test: Co-staining with mitotracker red, Pearson colocalization correlation; assay type: cell-based
Procedure: (§1) Pearson correlations were done after co-staining with mitotracker or lysotracker to evaluate specificity.
(§2) Confirmation of the supposed lysosome and mitochondria staining was achieved by doing co-staining experiments with Lysotacker Red™ and Mitortracker Red™, respectively. A Pearson colocalization correlation (PCC) of 0.75 was determined from a costaining experiments in which HeLa cells were incubated with E/Z-2 and Lysotracker. The imperfect correlation is due to higher specificity for a subset of vesicles stained by the Lysotracker.

[5] = test system: HeLa cells; test: Confocal microscopy of stained live HeLa cells (subcellular localization, cell permeability); details: for staining specificity / subcellular localization: confocal microscopy
From the text: (§3) Confocal microscopy was done on a Yokogawa spinning disk inverted microscope with a 100× lens. Each batch of stained cells was imaged by exciting with a 488 nm laser while observing at 503-545 nm (the green overlay images), exciting with a 561 nm laser while observing at 583-650 nm (the red overlay images), and by DIC (the grey images) (FIG. 8).
(§4) A 444 nm excitation was required to image with compounds 2 and 3 (FIG. 18).

[6] = test system: HeLa cells; test: One-hundred-time-point timelapse microscopy (photostability / resistance to photobleaching); assay type: cell-based; details: for decrease in intensity after 100 scans: 300 ms/scan, HeLa cells; for photostability compared with commercial dyes: vs Lysotracker Red / Mitotracker Red, 100 laser pulses of 300 ms; for loss of intensity over 100 scans: 100 pulses of 300 ms, maximum intensity of the image tracked
Procedure: One-hundred-time-point microscopy experiments were performed to evaluate photostability and/or resistance to photobleaching in comparison with the commercial dyes of lysotracker and mitotracker. […] For these experiments, each sample was pulsed 100 times for 300 ms and the maximum intensity of the image was tracked over time. […] Mitotracker was more robust than lysotracker, losing only 34% of its intensity over the 100 scans, while compound 3 lost only ˜13%. The most robust dye discovered thus far is monomethylated-3 (Me-3), which lost only ˜5% of its intensity over 100 scans.
This was determined via one-hundred-time-point timelapse microscopy experiments in which the […] intensity of the image was monitored over 100 laser pulses of 300 ms (FIG. 42).
To investigate photostability of 2 and 3, timelapse microscopy experiments were carried out.

[7] = test system: HeLa cells
[8] = Photophysical properties (absorption, emission, extinction coefficient, quantum yield); assay type: physicochemical
From the text: n-Butyllithium in hexanes was purchased from Acros and titrated with diphenylacetic acid, which was recrystallized from toluene. All other reagents were purchased from Sigma Aldrich and used without further purification. Solvents were purchased from either Sigma Aldrich or Fisher Scientific. Anhydrous solvents were purchased from Fisher Scientific and dried by passing through an alumina column of a solvent purification system. Silica gel (230-400 mesh) used for column chromatography was purchased from Silicycle. Thin layer chromatography plates (250 μm thickness) were purchased from Sorbent Technologies. Revered-phase column chromatography was done using a RediSep Rf Gold C18 column on a Teledyne Isco CombiFlash Rf system. High-performance liquid chromatography (HPLC) was performed on a Jasco HPLC system using a Phenomenex column (Luna 5u C18(2) 100A; 250×4.60 mm, 5 micron). UV absorption spectra were obtained on a Jasco V-650 spectrophotometer using a 1 cm path length quartz cuvette. Fluorescence emission spectra were taken on a Horiba Jobin-Yvon FluoroLog using a 1 cm path length fluorescence quartz cuvette. ^1H-NMR and ^13C-NMR were recorded on either a Bruker DMX 500 (500 MHz) or a Bruker AVII 500 (500 MHz). High-resolution mass spectrometry was performed using a Waters LCT Premier XE Mass Spectrometer (model KE 332). […] was performed using a Bruker APEX2-DUO CCD X-ray Diffractometer. Photoreactions were carried out in a Rayonet Photochemical Reactor (model RPR-100). Quantum yield was determined by serial dilution method using coumarine 153 (in ethanol, Φ=0.38) and fluorescein (in NaOH 0.1 M, Φ=0.95) as standards (Yvon, A guide to recording Fluorescence Quantum Yields, http://www.horiba.com/fileadmin/uploads/Scientific/Documents/Fluorescence/quantumyie ldstrad.pdf, accessed Jul. 13, 2014; Brouwer, 2011, Pure Appl. Chem. 83: 2213-2228)

[9] = test system: HeLa cells; remark: listed apart in the source
From the text: as §3, §4

[10] = test system: lysosomes of HeLa cells; test: Co-staining with lysotracker red, Pearson colocalization correlation; assay type: cell-based
Procedure: as §1, §2

[11] = in ethanol; cited from earlier work

SMILES: c1ccc2c(c1)Oc1cccnc1/C2=C1\c2ccccc2Oc2cccnc21 (racemic) [10-E/10-Z, 1,1′-diazaxanthilidene]
activation energy ΔG‡ of E/Z interconversion [1]: 15.7 kcal/mol

SMILES: c1ccc2c(c1)oc1cncc3c4cccc5oc6cnccc6c(c54)c2c13 [Compound 2, chromeno[2,3,4-de]pyrido[3′,4′:2,3]chromeno[4,5-gh]isoquinoline;2,9-diaza-benzo[1,2,3-kl:6,5,4-k′l′]dixanthene]
toxicity to HeLa cells [3]: non-toxic
Pearson correlation with mitotracker red [4]: 0.75
cell permeability [5]: cell permeable; also recorded: cell-permeable
staining specificity / subcellular localization [5]: staining mitochondria; also recorded: selectively stain mitochondria rather than the nucleus; also recorded: mitochondria-specific dyes; also recorded: localize primarily in the mitochondria; also recorded: stains mitochondria and additional structures
decrease in intensity after 100 scans [6]: only a slight decrease in intensity
photostability compared with commercial dyes [6]: superior

SMILES: c1cc2oc3cnccc3c3c2c(c1)c1cccc2oc4cnccc4c3c21 [Compound 3, 9,14-diaza-benzo[1,2,3-kl:6,5,4-k′l′]dixanthene]
Pearson correlation with mitotracker red [4]: 0.75
toxicity to HeLa cells [7]: non-toxic
loss of intensity over 100 scans [6]: ~13%
decrease in intensity after 100 scans [6]: only a slight decrease in intensity

SMILES: C[n+]1cccc2oc3cccc4c5cccc6oc7cccnc7c(c65)c(c34)c21 [Compound 12]
Stokes shift [8]: 108 nm
Abs λmax ([8]; in water): 504 nm
Em λmax ([8]; in water): 612 nm
extinction coefficient ε ([8]; solvent: water): 11496 M⁻¹ cm⁻¹
quantum yield Φ ([8]; solvent: water): 0.100

SMILES: C[n+]1ccc2c(c1)oc1cccc3c4c[n+](C)cc5oc6ccccc6c(c54)c2c13 [DiMe-2, 2,9-dimethylchromeno[2,3,4-de]pyrido[3′,4′:2,3]chromeno[4,5-gh]isoquinoline-2,9-diium]
toxicity to HeLa cells [3]: non-toxic
cell permeability [5]: cell permeable
staining specificity / subcellular localization [5]: specific for punctuate organelles; also recorded: lysosomal subcellular specificity
water solubility [2]: water-solubility

SMILES: C[n+]1ccc2c(c1)oc1cccc3c4cccc5oc6c[n+](C)ccc6c(c54)c2c13 [DiMe-3, 9,14-dimethyl-9,14-diaza-benzo[1,2,3-kl:6,5,4-k′l′]dixanthene]
toxicity to HeLa cells [7]: non-toxic
staining specificity / subcellular localization [5]: staining lysosomes; also recorded: specific for punctuate organelles; also recorded: lysosomal subcellular specificity
cell permeability [9]: cell permeable

SMILES: C[n+]1ccc2c(c1)Oc1ccccc1/C2=C1/c2ccccc2Oc2c[n+](C)ccc21 [DiMe-E-1, (E)-3,3′-dimethyl-[5,5′-bichromeno[2,3-c]pyridinylidene]-3,3′-diium]
toxicity to HeLa cells [3]: non-toxic
cell permeability [5]: cell permeable
staining specificity / subcellular localization [5]: specific for punctuate organelles; also recorded: lysosomal subcellular specificity
water solubility [2]: water-solubility
photostability compared with commercial dyes [6]: superior

SMILES: C[n+]1ccc2c(c1)Oc1ccccc1/C2=C1/c2ccccc2Oc2c[n+](C)ccc21 [E/Z-6]
staining specificity / subcellular localization [5]: stains lysosomes

SMILES: C[n+]1ccc2c(c1)oc1cccc3c4cccc5oc6cnccc6c(c54)c2c13 [Me-3, 9-Me-9,14-diaza-benzo[1,2,3-kl:6,5,4-k′l′]dixanthene]
loss of intensity over 100 scans [6]: ~5%
Pearson correlation with lysotracker red [10]: 0.25

SMILES: O=c1cc(C(F)(F)F)c2cc3c4c(c2o1)CCCN4CCC3 [coumarine 153]
quantum yield Φ of standard [11]: 0.38

Now from value to compound, other results behind:

solubility in DMSO ([2]; DMSO): poor solubility
SMILES: c1ccc2c(c1)Oc1cnccc1/C2=C1\c2ccccc2Oc2cnccc21 (racemic) [E/Z-1, 3,3′-diazaxanthylidene]

cell permeability [5]: cell permeable
water solubility [2]: water-solubility
photostability compared with commercial dyes [6]: superior
SMILES: C[n+]1ccc2c(c1)Oc1ccccc1/C2=C1\c2ccccc2Oc2c[n+](C)ccc21 [DiMe-Z-1, (Z)-N, N′-dimethyl-3,3′-diazaxanthylidene]
toxicity to HeLa cells [3]: non-toxic
staining specificity / subcellular localization [5]: specific for punctuate organelles; also recorded: lysosomal subcellular specificity

loss of intensity over 100 scans [6]: ~30%
SMILES: C[n+]1ccc2c(c1)Oc1ccccc1/C2=C1/c2ccccc2Oc2cnccc21 [Me-E-1, (E)-2-methyl-[5,5′-bichromeno[2,3-c]pyridinylidene]-2-ium]
staining specificity / subcellular localization [5]: lysosome-specific stain
staining specificity / subcellular localization ([5]; listed as Me-1): lysosome-specific stain
staining specificity / subcellular localization ([5]; listed as monomethylated 3,3′-DAXAZ): good lysosomal stain
Pearson correlation with lysotracker red [10]: 0.75

loss of intensity over 100 scans [6]: 34%
SMILES: ClCc1ccc(C2=c3cc4c5c(c3Oc3c2cc2c6c3CCCN6CCC2)CCC[N+]=5CCC4)cc1.[Cl-] [Mitotracker, reference compound]

loss of intensity over 100 scans [6]: 80%
SMILES: CN(C)CCNC(=O)CCc1ccc2n1[B-](F)(F)[N+]1=C(c3ccc[nH]3)C=CC1=C2 [lysotracker, reference compound]
